Assay results from patent US8093239B2, “Imidazopyridine kinase inhibitors” (GlaxoSmithKline LLC, priority 2007, dated 2012).

Tests used:
[1] = test system: LISN cell (mouse 3T3 fibroblasts transduced with human IGF-1R) tumors; test: In vivo efficacy, mice bearing LISN cell tumors; settings: for tumor growth inhibition at day 21: LISN tumors (~362 mm^3)
Method: E. In Vivo Efficacy—Mouse Models
The efficacy of the compounds of Examples 57 and 58 were assessed together in an in vivo efficacy experiment performed on mice bearing LISN cell (mouse 3T3 fibroblasts transduced with human IGF-1R) tumors. Fifty six female nude mice bearing subcutaneous LISN cell tumors were measured for tumor size and body weight and block randomized into seven groups of eight mice with an equal average tumor volume of approximately 200 mm3. Mice were dosed with either vehicle (20% SBE pH3.5), Example 57 or Example 58. The dosing schedules for each compound were based on previous experiments with the compounds and doses chosen to give the highest tumor growth inhibition and a dose response. Example 58 was dosed at 30, 100 and 300 mg/kg QD for 21 days while Example 57 was dosed at 30 mg/kg QD for 21 days, 15 mg/kg BID for 21 days and 30 mg/kg QD×3 days/week for 3 weeks.
The tumors on mice being treated with vehicle grew with the expected exponential growth throughout the 21 day study. […] The lower dose of 30 mg/kg of Example 58 achieved 28% tumor growth inhibition.
The efficacy of the compounds of Examples 237 and 219 were assessed together in an in vivo efficacy experiment performed on mice bearing LISN cell (mouse 3T3 fibroblasts transduced with human IGF-1R) tumors. Sixty four female nude mice bearing subcutaneous LISN cell tumors were measured for tumor size and body weight and block randomized into eight groups of eight mice with an equal average tumor volume of approximately 362 mm^3. Mice were dosed with either vehicle (20% SBE pH3.5), Example 237 or Example 219. The dosing schedules for each compound were based on previous experiments with the compounds and doses chosen to give the highest tumor growth inhibition and a dose response. Example 237 was administered at 30 and 60 mg/kg QD for 21 days and 30 mg/kg BID for 21 days while Example 219 was administered at 50 and 100 mg/kg QD for 21 days, 25 and 50 mg/kg BID for 21 days.
The tumors on mice being treated with vehicle grew with the expected exponential growth throughout the 21 day study. […] The lower dose of 30 mg/kg QD of Example 237 achieved 15% tumor growth inhibition at day 21 (note: 2 animals were euthanized prior to the last measurement). […] This recovered to 3% by the end of dosing and fully recovered after dosing was concluded. […] This recovered fully within 4 days after the completion of dosing.

[2] = test system: BT474 cell tumors (breast carcinoma cell line); test: In vivo efficacy, BT474 tumor bearing mice; design: species or system mouse; settings: BT474 study, all groups (60, 30, 15 mg/kg QD, 15 mg/kg BID)
Method: (§1) In addition to the LISN xenograft efficacy studies, Example 57 has also been assessed in vivo in two other mouse models of cancer, including: Colo-205 tumor bearing mice (colon carcinoma cell line) and BT474 tumor bearing mice (breast carcinoma cell line). Forty female nude mice bearing Colo-205 tumors (average tumor size of 200 mm3) were randomized into five groups of eight mice and dosed with either vehicle (20% SBE pH3.5) or Example 57 at 100, 30, 10 mg/kg QD or 30 mg/kg BID for 21 days. The groups of mice dosed with the higher doses of Example 57 (100 mg/kg QD and 30 mg/kg BID) lost greater than 20% body weight within 10 days of dosing so were taken off the study and allowed to recover. […] The higher doses of 100 mg/kg QD×10 and 30 mg/kg BID×10 achieved 72 and 49% tumor growth inhibition respectively.
Due to the body weight loss seen with the higher doses in the Colo-205 xenograft efficacy study, the dosing regime was altered for the follow up BT474 study. Forty female nude mice bearing subcutaneous BT474 cell tumors (average tumor size of 200 mm3) were randomized into five groups each containing eight mice and dosed with either vehicle (20% SBE pH3.5) or Example 57 at 60, 30 or 15 mg/kg QD or 15 mg/kg BID for 21 days. Note the maximal QD dose was reduced from 100 mg/kg to 60 mg/kg and the BID dose reduced from 30 mg/kg to 15 mg/kg. […]

[3] = test system: Colo-205 tumors (colon carcinoma cell line); test: In vivo efficacy, Colo-205 tumor bearing mice; design: species or system mouse; settings: Colo-205 study
Method: as §1

[4] = LISN study (~362 mm^3), 100 mg/kg and 50 mg/kg QD

Compound: CCOc1cc(N2CCC(CCS(C)(=O)=O)CC2)c(C)cc1Nc1nccc(-c2c(-c3ccc(OC)c(C(=O)Nc4c(F)cccc4F)c3)nc3ccccn23)n1 [Example 219, N-(2,6-difluorophenyl)-5-(3-{2-[(2-(ethyloxy)-5-methyl-4-{4-[2-(methylsulfonyl)ethyl]-1-piperidinyl}phenyl)amino]-4-pyrimidinyl}imidazo[1,2-a]pyridin-2-yl)-2-(methyloxy)benzamide]
- time to full recovery of body weight after the completion of dosing ([1]; LISN study (~362 mm^3), 25 mg/kg BID and 50 mg/kg BID): ≤ 4 days
- body weight loss ([1]; LISN study (~362 mm^3), 25 mg/kg BID for 21 days): 4%
- body weight loss ([1]; LISN study (~362 mm^3), 50 mg/kg BID for 21 days): 6%
- body weight loss [1, 4]: no body weight loss
- tolerability [1, 4]: well tolerated

Compound: COc1cc(N2CCC(N3CCN(S(C)(=O)=O)CC3)CC2)ccc1Nc1nccc(-c2c(-c3cccc(C(=O)Nc4c(F)cccc4F)c3)nc3ccccn23)n1 [Example 58, N-(2,6-difluorophenyl)-3-(3-{2-[(2-(methyloxy)-4-{4-[4-(methylsulfonyl)-1-piperazinyl]-1-piperidinyl}phenyl)amino]-4-pyrimidinyl}imidazo[1,2-a]pyridin-2-yl)benzamide]
- body weight loss ([1]; LISN study, 30, 100 and 300 mg/kg QD for 21 days, throughout the study): no effect of Example 58 on body weight loss

Compound: COc1cc(N2CCC(N3CCN(CCF)CC3)CC2)ccc1Nc1nccc(-c2c(-c3cccc(C(=O)Nc4c(F)cccc4F)c3)nc3ccccn23)n1 [Example 57, N-(2,6-difluorophenyl)-3-[3-(2-{[4-{4-[4-(2-fluoroethyl)-1-piperazinyl]-1-piperidinyl}-2-(methyloxy)phenyl]amino}-4-pyrimidinyl)imidazo[1,2-a]pyridin-2-yl]benzamide]
- body weight loss ([1]; LISN study, 30 mg/kg QD and 15 mg/kg BID treated groups, 21 days): no body weight loss
- tolerability ([1]; LISN study, 30 mg/kg QD and 15 mg/kg BID, 21 days): well tolerated
- body weight loss ([1]; LISN study, 30 mg/kg QD×3 days/week for 3 weeks, over the three consecutive days of dosing, recovered in the four days between doses): significant body weight loss
- body weight loss [2]: no body weight loss
- body weight lost ([3]; 100 mg/kg QD and 30 mg/kg BID, within 10 days of dosing): greater than 20%
- body weight loss ([3]; 30 and 10 mg/kg QD×21): no body weight loss

Compound: CCc1cc(Nc2nccc(-c3c(-c4ccc(OC)c(C(=O)Nc5c(F)cccc5F)c4)nc4ccccn34)n2)c(OC)cc1N1CCC(N2CCN(S(C)(=O)=O)CC2)CC1 [Example 237, N-(2,6-difluorophenyl)-5-(3-{2-[(5-ethyl-2-(methyloxy)-4-{4-[4-(methylsulfonyl)-1-piperazinyl]-1-piperidinyl}phenyl)amino]-4-pyrimidinyl}imidazo[1,2-a]pyridin-2-yl)-2-(methyloxy)benzamide]
- initial body weight loss ([1]; LISN study (~362 mm^3), 30 mg/kg BID): 6%
- body weight loss by the end of dosing ([1]; LISN study (~362 mm^3), 30 mg/kg BID, fully recovered after dosing was concluded): 3%
- body weight loss ([1]; LISN study (~362 mm^3), other groups (30 and 60 mg/kg QD)): no effect on body weight loss
- tumor growth inhibition at day 21 ([1]; 30 mg/kg BID for 21 days): 84%
- tumor growth inhibition at day 21 ([1]; 30 mg/kg QD for 21 days, 2 animals euthanized prior to the last measurement): 15%
- tumor growth inhibition at day 21 ([1]; 60 mg/kg QD for 21 days): 41%
